# Source: PubChem BioAssay AID330 (DTP/NCI, 2004)
# Where “and” joins values, the source holds several entries; their conditions need not be identical. Identical values can stand only once. Inconclusive results and toxic doses are left out.
# Test system: P388 leukemia ip, CD2F1 mice, survival T/C
# Assay: NCI In Vivo Anticancer Drug Screen. Data for tumor model P388 Leukemia (intraperitoneal) in CD2F1 (CDF1) mice
# Details: endpoint: median survival time, higher = longer survival
# Method in brief: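 Mice carrying the transplanted tumor received test compound or vehicle. Survival was recorded in each group, and the value is the treated-group measurement divided by that of the vehicle-treated control group.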
# [1] = dose: 12.5 mg/kg/injection, schedule: Q01DX009 (ip), vehicle: saline
# [2] = dose: 25.0 mg/kg/injection, schedule: Q01DX009 (ip), vehicle: saline
# [3] = dose: 50.0 mg/kg/injection, schedule: Q01DX009 (ip), vehicle: saline
# [4] = dose: 100.0 mg/kg/injection, schedule: Q01DX009 (ip), vehicle: saline with Tween-80
# [5] = dose: 50.0 mg/kg/injection, schedule: Q01DX009 (ip), vehicle: saline with Tween-80
# [6] = dose: 200.0 mg/kg/injection, schedule: Q01DX009 (ip), vehicle: saline with Tween-80
compound,measurement,setting,value
Cc1nn(C(=S)S)c(C)c1N=Nc1ccccc1C(F)(F)F,T/C,"dose: 3.12 mg/kg/injection, schedule: Q04DX002 (ip), vehicle: saline with Tween-80",99 % of control and 102 % of control
same,T/C,"dose: 6.25 mg/kg/injection, schedule: Q04DX002 (ip), vehicle: saline with Tween-80",100 % of control
same,T/C,"dose: 12.5 mg/kg/injection, schedule: Q04DX002 (ip), vehicle: saline with Tween-80",108 % of control and 94 % of control
same,T/C,"dose: 25.0 mg/kg/injection, schedule: Q04DX002 (ip), vehicle: saline with Tween-80",103 % of control and 86 % of control and 89 % of control
same,T/C,"dose: 50.0 mg/kg/injection, schedule: Q04DX002 (ip), vehicle: saline with Tween-80",96 % of control
same,T/C,"dose: 200.0 mg/kg/injection, schedule: Q04DX002 (ip), vehicle: saline with Tween-80",89 % of control
same,T/C,"dose: 400.0 mg/kg/injection, schedule: Q04DX002 (ip), vehicle: saline with Tween-80",105 % of control
O=C(c1ccccc1)c1cccc[n+]1Cc1ccccc1,T/C,[1],103 % of control
same,T/C,[2],96 % of control
same,T/C,[3],98 % of control and 100 % of control
COc1ccc2c(C)c3[n+](cc2c1OC)CCc1cc2c(cc1-3)OCO2,T/C,"dose: 0.4 mg/kg/injection, schedule: Q01DX005 (ip), vehicle: saline",95 % of control
same,T/C,"dose: 0.78 mg/kg/injection, schedule: Q04DX003 (ip), vehicle: water",102 % of control
same,T/C,"dose: 0.8 mg/kg/injection, schedule: Q01DX005 (ip), vehicle: saline",101 % of control
same,T/C,"dose: 1.56 mg/kg/injection, schedule: Q04DX003 (ip), vehicle: water",103 % of control
same,T/C,"dose: 1.6 mg/kg/injection, schedule: Q01DX005 (ip), vehicle: saline",107 % of control
same,T/C,"dose: 3.13 mg/kg/injection, schedule: Q04DX003 (ip), vehicle: water",106 % of control
same,T/C,"dose: 6.25 mg/kg/injection, schedule: Q04DX003 (ip), vehicle: water",97 % of control
same,T/C,"dose: 12.5 mg/kg/injection, schedule: Q04DX003 (ip), vehicle: water",97 % of control
COC(=O)C(CSCSCc1ccccc1)NC(=O)C(CSCc1ccccc1)NC(=O)CCNC(=O)OCc1ccccc1 (stereo not drawn),T/C,"dose: 3.12 mg/kg/injection, schedule: Q04DX003 (ip), vehicle: saline",114 % of control
same,T/C,"dose: 6.25 mg/kg/injection, schedule: Q04DX003 (ip), vehicle: saline",100 % of control
same,T/C,"dose: 12.5 mg/kg/injection, schedule: Q04DX003 (ip), vehicle: saline",98 % of control
same,T/C,"dose: 25.0 mg/kg/injection, schedule: Q04DX003 (ip), vehicle: saline",112 % of control
CN(C)CCN(C)CCC(=O)/C=C/c1ccccc1,T/C,"dose: 12.5 mg/kg/injection, schedule: Q01DX001 (ip), vehicle: saline",94 % of control
same,T/C,"dose: 25.0 mg/kg/injection, schedule: Q01DX001 (ip), vehicle: saline",101 % of control
same,T/C,"dose: 50.0 mg/kg/injection, schedule: Q01DX001 (ip), vehicle: saline",111 % of control
O=C1/C(=C/c2ccccn2)CCc2ccccc21,T/C,[3],102 % of control
same,T/C,"dose: 100.0 mg/kg/injection, schedule: Q01DX009 (ip), vehicle: saline",101 % of control
same,T/C,"dose: 200.0 mg/kg/injection, schedule: Q01DX009 (ip), vehicle: saline",99 % of control
CCCCC1C(=S)N(c2ccccc2)N(c2ccccc2)C1=S,T/C,"dose: 50.0 mg/kg/injection, schedule: Q01DX005 (ip), vehicle: Klucel (hydroxypropylcellulose) (HPC)",101 % of control
same,T/C,"dose: 100.0 mg/kg/injection, schedule: Q01DX005 (ip), vehicle: Klucel (hydroxypropylcellulose) (HPC)",94 % of control
same,T/C,"dose: 200.0 mg/kg/injection, schedule: Q01DX005 (ip), vehicle: Klucel (hydroxypropylcellulose) (HPC)",97 % of control
NC1=C(N2CC2)C(=O)C(N)=C(N2CC2)C1=O,T/C,"dose: 0.05 mg/kg/injection, schedule: Q01DX009 (ip), vehicle: saline",177 % of control
same,T/C,"dose: 0.1 mg/kg/injection, schedule: Q01DX009 (ip), vehicle: saline",187 % of control and 223 % of control
same,T/C,"dose: 0.2 mg/kg/injection, schedule: Q01DX009 (ip), vehicle: saline",256 % of control
same,T/C,"dose: 0.3 mg/kg/injection, schedule: Q01DX009 (ip), vehicle: saline",225 % of control
O=C1C(=O)N(c2ccccc2)C(=O)N1c1ccccc1,T/C,"dose: 6.25 mg/kg/injection, schedule: Q01DX009 (ip), vehicle: saline with Tween-80",96 % of control
same,T/C,"dose: 12.5 mg/kg/injection, schedule: Q01DX009 (ip), vehicle: saline with Tween-80",105 % of control
same,T/C,"dose: 25.0 mg/kg/injection, schedule: Q01DX009 (ip), vehicle: saline with Tween-80",104 % of control and 89 % of control
same,T/C,[4],101 % of control and 86 % of control
COc1ccc2c(c1OC)C(=C(C#N)C#N)N1CCc3cc4c(cc3C1=C2)OCO4,T/C,"dose: 0.63 mg/kg/injection, schedule: Q01DX009 (ip), vehicle: distilled water + Tween-80",103 % of control
same,T/C,"dose: 1.25 mg/kg/injection, schedule: Q01DX009 (ip), vehicle: distilled water + Tween-80",94 % of control
same,T/C,"dose: 2.5 mg/kg/injection, schedule: Q01DX009 (ip), vehicle: distilled water + Tween-80",112 % of control
same,T/C,"dose: 5.0 mg/kg/injection, schedule: Q01DX009 (ip), vehicle: distilled water + Tween-80",112 % of control
same,T/C,"dose: 10.0 mg/kg/injection, schedule: Q01DX009 (ip), vehicle: distilled water + Tween-80",108 % of control
same,T/C,"dose: 20.0 mg/kg/injection, schedule: Q01DX009 (ip), vehicle: distilled water + Tween-80",121 % of control
Cc1cc(C2c3ccccc3-c3ccccc32)cc(C)c1O,T/C,"dose: 1.87 mg/kg/injection, schedule: Q01DX005 (ip), vehicle: saline with Tween-80",90 % of control
same,T/C,"dose: 3.75 mg/kg/injection, schedule: Q01DX005 (ip), vehicle: saline with Tween-80",97 % of control
same,T/C,"dose: 7.5 mg/kg/injection, schedule: Q01DX005 (ip), vehicle: saline with Tween-80",91 % of control
same,T/C,"dose: 15.0 mg/kg/injection, schedule: Q01DX005 (ip), vehicle: saline with Tween-80",91 % of control
same,T/C,"dose: 60.0 mg/kg/injection, schedule: Q01DX005 (ip), vehicle: saline with Tween-80",90 % of control
same,T/C,"dose: 240.0 mg/kg/injection, schedule: Q01DX005 (ip), vehicle: saline with Tween-80",92 % of control
CN(/C=C1\CCCCC1=O)c1ccccc1,T/C,[5],98 % of control
same,T/C,[4],102 % of control
same,T/C,[6],113 % of control
CC1=CC(=O)N(NC(N)=O)C1=O,T/C,"dose: 6.25 mg/kg/injection, schedule: Q01DX009 (ip), vehicle: saline",102 % of control and 110 % of control
same,T/C,[1],105 % of control and 108 % of control
same,T/C,[2],110 % of control and 123 % of control
same,T/C,[3],109 % of control and 122 % of control
Oc1ccccc1C=NCCN1CC1.Oc1ccccc1C=NCCN1CC1.[Co+2],T/C,"dose: 4.7 mg/kg/injection, schedule: Q01DX009 (ip), vehicle: saline",103 % of control
same,T/C,"dose: 9.4 mg/kg/injection, schedule: Q01DX009 (ip), vehicle: saline",102 % of control
same,T/C,"dose: 18.8 mg/kg/injection, schedule: Q01DX009 (ip), vehicle: saline",100 % of control
same,T/C,"dose: 37.5 mg/kg/injection, schedule: Q01DX009 (ip), vehicle: saline",100 % of control and 97 % of control
CC1=C(OS(C)(=O)=O)CCC1=O,T/C,"dose: 12.5 mg/kg/injection, schedule: Q01DX005 (ip), vehicle: saline with Tween-80",104 % of control
same,T/C,"dose: 25.0 mg/kg/injection, schedule: Q01DX005 (ip), vehicle: saline with Tween-80",103 % of control
same,T/C,"dose: 50.0 mg/kg/injection, schedule: Q01DX005 (ip), vehicle: saline with Tween-80",103 % of control and 107 % of control
same,T/C,"dose: 100.0 mg/kg/injection, schedule: Q01DX005 (ip), vehicle: saline with Tween-80",106 % of control
COc1ccc2c(c1)N(C(=O)CN1CCN(C)CC1)c1ccccc1S2,T/C,"dose: 25.0 mg/kg/injection, schedule: Q04DX002 (ip), vehicle: saline",99 % of control
same,T/C,"dose: 50.0 mg/kg/injection, schedule: Q04DX002 (ip), vehicle: saline",102 % of control
same,T/C,"dose: 100.0 mg/kg/injection, schedule: Q04DX002 (ip), vehicle: saline with Tween-80",100 % of control
same,T/C,"dose: 100.0 mg/kg/injection, schedule: Q04DX002 (ip), vehicle: saline",99 % of control
C=C1CC2(CCC23CC(=C)C(=O)O3)OC1=O (stereo not drawn),T/C,"dose: 5.0 mg/kg/injection, schedule: Q01DX009 (ip), vehicle: Klucel (hydroxypropylcellulose) (HPC)",100 % of control
same,T/C,"dose: 10.0 mg/kg/injection, schedule: Q01DX009 (ip), vehicle: Klucel (hydroxypropylcellulose) (HPC)",116 % of control
same,T/C,"dose: 20.0 mg/kg/injection, schedule: Q01DX009 (ip), vehicle: Klucel (hydroxypropylcellulose) (HPC)",117 % of control
Fc1ccc(CSC(=S)Nc2cccc(C(F)(F)F)c2)cc1,T/C,"dose: 50.0 mg/kg/injection, schedule: Q01DX009 (ip), vehicle: suspension in saline",97 % of control
same,T/C,"dose: 100.0 mg/kg/injection, schedule: Q01DX009 (ip), vehicle: suspension in saline",90 % of control
CC(C)(C)/C(=N\NC(=O)CCCl)c1ccccc1,T/C,[5],97 % of control
same,T/C,[4],97 % of control
same,T/C,[6],95 % of control
